Assay results as given in patent US20260042769A1, “TRIARYL AGONISTS OF ALPHA-2 ADRENERGIC RECEPTORS” (ALCEPTOR THERAPEUTICS, INC., priority 2023, published 2026).
Read-outs that look alike come from different tables or passages of the source.

Target: T1, human ADRA2B receptor (Homo sapiens, UniProt P18089)
T1 construct: expressed in transfected cells
T1 sequence (P18089 1-450): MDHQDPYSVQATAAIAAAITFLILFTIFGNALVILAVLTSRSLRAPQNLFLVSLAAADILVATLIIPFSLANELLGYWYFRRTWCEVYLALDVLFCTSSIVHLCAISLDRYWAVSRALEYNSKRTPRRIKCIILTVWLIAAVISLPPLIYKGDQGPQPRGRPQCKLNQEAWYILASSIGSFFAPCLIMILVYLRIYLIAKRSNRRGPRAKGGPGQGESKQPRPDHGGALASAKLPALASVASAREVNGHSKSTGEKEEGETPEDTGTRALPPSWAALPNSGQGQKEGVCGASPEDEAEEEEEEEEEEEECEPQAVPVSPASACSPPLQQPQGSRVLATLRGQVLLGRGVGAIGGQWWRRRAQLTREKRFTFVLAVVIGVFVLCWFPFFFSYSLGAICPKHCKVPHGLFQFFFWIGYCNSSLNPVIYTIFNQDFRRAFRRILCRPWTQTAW
Experiment: ADRA2B arrestin agonist assay
Type: cell-based
Conditions: read-out: Beta-Arrestin - Human Alpha2B EC50
Outline: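 CHO-K1 cells stably expressing human ADRA2B, thawed from frozen stock and plated overnight, were treated with agonist for 2 h at 37 °C. Arrestin recruitment detected by luminescence after 2 h with detection reagents at room temperature.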

[1] = CHO-K1 cells stably expressing human ADRA2B

Structure (SMILES)	EC50 [1] [nM]	EC50 [nM]
CC(C)n1cc(C[C@H](c2c[nH]cn2)c2cccc3c2OCC3)cn1 [Compound 298, 4-[(S)-2-(2,3-dihydro-1-benzofuran-7-yl)-2-(4-imidazolyl)ethyl]-1-isopropylpyrazole]	< 10	
Cn1nccc1CC(c1c[nH]cn1)c1cccc2c1OCCCO2 (stereo not shown) [Compound 299, 5-[2-(3,4-dihydro-2H-1,5-benzodioxepin-6-yl)-2-(4-imidazolyl)ethyl]-1-]	> 500	
c1cc2c(c(C(Cc3ccc4nccn4c3)c3c[nH]cn3)c1)OCC2 (stereo not shown) [Compound 300]	< 10	
Cn1ncc2c(C(Cc3cccc(CO)n3)c3c[nH]cn3)cccc21 (stereo not shown) [Compound 301, {6-[2-(4-imidazolyl)-2-(1-methyl-1H-indazol-4-yl)ethyl]-2-pyridyl}methanol]	10 to 50	
CNC(=O)c1ccc(CC(c2c[nH]cn2)c2cccc(C)c2C)cn1 (stereo not shown) [Compound 302, N-methyl-5-[2-(4-imidazolyl)-2-(2,3-xylyl)ethyl]-2-pyridinecarboxamide]	< 10	
Cn1ncc2c(C(Cc3cccc(CF)n3)c3c[nH]cn3)cccc21 (stereo not shown) [Compound 303, 4-{2-[6-(fluoromethyl)-2-pyridyl]-1-(4-imidazolyl)ethyl}-1-methyl-1H-indazole]	10 to 50	
Cc1cccc([C@@H](Cc2cccc(C(C)(C)O)n2)c2c[nH]cn2)c1C [Compound 304, 2-{6-[(R)-2-(4-imidazolyl) 2-(2,3-xylyl)ethyl]-2-pyridyl}-2-propanol]	< 10	
Cc1cccc([C@H](Cc2cccc(C(C)(C)O)n2)c2c[nH]cn2)c1C [Compound 305, 2-{6-[(S)-2-(4-imidazolyl) 2-(2,3-xylyl)ethyl]-2-pyridyl}-2-propanol]	> 500	
COCc1nccc(CC(c2c[nH]cn2)c2cccc3c2OCC3)n1 (stereo not shown) [Compound 306, 4-[2-(2,3-dihydro-1-benzofuran-7-yl)-2-(4-imidazolyl)ethyl]-2-(methoxymethyl)pyrimidine]	< 10	
COc1cc(CC(c2c[nH]cn2)c2cccc(C)c2C)nc(OC)n1 (stereo not shown) [Compound 307, 4-[2-(4-imidazolyl)-2-(2,3-xylyl)ethyl]-2,6-dimethoxypyrimidine]	< 10	
Cn1nc2ccccc2c1CC(c1c[nH]cn1)c1cccc2c1OCC2 (stereo not shown) [Compound 308, 3-[2-(2,3-dihydro-1-benzofuran-7-yl)-2-(4-imidazolyl)ethyl]-2-methyl-2H-indazole]	10 to 50	
Cc1cccc(C(Cc2ccc(C(=O)N(C)C)nc2)c2c[nH]cn2)c1C (stereo not shown) [Compound 311, N,N-dimethyl-5-[2-(4-imidazolyl)-2-(2,3-xylyl)ethyl]-2-pyridinecarboxamide]	< 10	
COc1nc(CC(c2c[nH]cn2)c2cccc3c2OCC3)ccc1F (stereo not shown) [Compound 313, 4-[1-(2,3-dihydro-1-benzofuran-7-yl)-2-(5-fluoro-6-methoxy-2-pyridyl)ethyl]imidazole]	< 10	
COc1cc(CC(c2c[nH]cn2)c2cccc3c2OCC3)ccn1 (stereo not shown) [Compound 314, 4-[1-(2,3-dihydro-1-benzofuran-7-yl)-2-(2-methoxy-4-pyridyl)ethyl]imidazole]	< 10	
Cc1cc(CC(c2c[nH]cn2)c2cccc(C)c2C)c(F)cn1 (stereo not shown) [Compound 315, 4-[2-(5-fluoro-2-methyl-4-pyridyl)-1-(2,3-xylyl)ethyl]imidazole]	< 10	
Cc1cc(CC(c2c[nH]cn2)c2cccc(C)c2C)nc(C)n1 (stereo not shown) [Compound 316, 4-[2-(4-imidazolyl)-2-(2,3-xylyl)ethyl]-2,6-dimethylpyrimidine]	< 10	
Cc1cccc(C(Cc2nc(CO)ccc2F)c2c[nH]cn2)c1C (stereo not shown) [Compound 317, {5-fluoro-6-[2-(4-imidazolyl)-2-(2,3-xylyl)ethyl]-2-pyridyl}methanol]	< 10	
Cc1cccc(C(Cc2ccc(F)c(CO)n2)c2c[nH]cn2)c1C (stereo not shown) [Compound 318, {3-fluoro-6-[2-(4-imidazolyl)-2-(2,3-xylyl)ethyl]-2-pyridyl}methanol]	< 10	
Cc1cccc([C@H](Cc2ccncc2)c2c[nH]cn2)c1C [Compound 319, 4-[(S)-2-(4-pyridyl)-1-(2,3-xylyl)ethyl]imidazole]		< 10
Cc1cccc([C@@H](Cc2ccncc2)c2c[nH]cn2)c1C [Compound 320, 4-[(R)-2-(4-pyridyl)-1-(2,3-xylyl)ethyl]imidazole]		> 500
Cc1cccc(C(Cc2ccnc(F)c2)c2c[nH]cn2)c1F (stereo not shown) [Compound 321, 4-[2-(2-fluoro-4-pyridyl)-1-(2-fluoro-3-tolyl)ethyl]imidazole]	< 10	
Cc1cccc(C(Cc2cncc(F)c2)c2c[nH]cn2)c1F (stereo not shown) [Compound 322, 4-[2-(5-fluoro-3-pyridyl)-1-(2-fluoro-3-tolyl)ethyl]imidazole]	10 to 50	

Structure (SMILES)	EC50 [1] [nM]	EC50 [nM]
Cc1cccc(C(Cc2ccc(F)nc2)c2c[nH]cn2)c1F (stereo not shown) [Compound 323, 4-[2-(6-fluoro-3-pyridyl)-1-(2-fluoro-3-tolyl)ethyl]imidazole]	50 to 500	
COc1nccc(CC(c2cccc(C)c2)c2c[nH]cn2)n1 (stereo not shown) [Compound 337, 4-[2-(4-imidazolyl)-2-(m-tolyl)ethyl]-2-methoxypyrimidine]	10 to 50	
COc1ncc(CC(c2c[nH]cn2)c2cccc(C)c2C)cn1 (stereo not shown) [Compound 339, 5-[2-(4-imidazolyl)-2-(2,3-xylyl)ethyl]-2-methoxypyrimidine]	50 to 500	
COc1nccc(CC(c2cccc(Cl)c2)c2c[nH]cn2)n1 (stereo not shown) [Compound 340, 4-[2-(m-chlorophenyl)-2-(4-imidazolyl)ethyl]-2-methoxypyrimidine]	50 to 500	
Cc1nccc(CC(c2c[nH]cn2)c2cccc3cccnc23)n1 (stereo not shown) [Compound 341, 4-[2-(4-imidazolyl)-2-(8-quinolyl)ethyl]-2-methylpyrimidine]	< 10	
Cc1nccc(CC(c2c[nH]cn2)c2cccc3ccn(C)c23)n1 (stereo not shown) [Compound 342, 4-[2-(4-imidazolyl)-2-(1-methyl-7-indolyl)ethyl]-2-methylpyrimidine]	< 10	
Cc1nccc(CC(c2c[nH]cn2)c2cccc3c2OCCO3)n1 (stereo not shown) [Compound 343, 4-[2-(2,3-dihydro-1,4-benzodioxin-5-yl)-2-(4-imidazolyl)ethyl]-2-methylpyrimidine]	< 10	
OCc1nccc(CC(c2c[nH]cn2)c2cccc3c2OCC3)n1 (stereo not shown) [Compound 344, {4-[2-(2,3-dihydro-1-benzofuran-7-yl)-2-(4-imidazolyl)ethyl]-2-pyrimidinyl}methanol]	< 10	
COCc1nccc(C[C@@H](c2c[nH]cn2)c2cccc(C)c2C)n1 [Compound 345, 4-[(R)-2-(4-imidazolyl)-2-(2,3-xylyl)ethyl]-2-(methoxymethyl)pyrimidine]	< 10	
COCc1nccc(C[C@H](c2c[nH]cn2)c2cccc(C)c2C)n1 [Compound 346, 4-[(S)-2-(4-imidazolyl)-2-(2,3-xylyl)ethyl]-2-(methoxymethyl)pyrimidine]	> 500	
COc1c(C)cccc1C(Cc1ccnc(CO)n1)c1c[nH]cn1 (stereo not shown) [Compound 347, {4-[2-(4-imidazolyl)-2-(2-methoxy-3-tolyl)ethyl]-2-pyrimidinyl}methanol]	50 to 500	
COc1nccc(C[C@@H](c2c[nH]cn2)c2cccc3ccn(C)c23)n1 [Compound 348, 4-[(R)-2-(4-imidazolyl)-2-(1-methyl-7-indolyl)ethyl]-2-methoxypyrimidine]	< 10	
COc1nccc(C[C@H](c2c[nH]cn2)c2cccc3ccn(C)c23)n1 [Compound 349, 4-[(S)-2-(4-imidazolyl)-2-(1-methyl-7-indolyl)ethyl]-2-methoxypyrimidine]	> 500	
COc1nccc(CC(c2c[nH]cn2)c2cccc3cnn(C)c23)n1 (stereo not shown) [Compound 350, 7-[1-(4-imidazolyl)-2-(2-methoxy-4-pyrimidinyl)ethyl]-1-methyl-1H-indazole]	50 to 500	
Cc1nccc(C[C@H](c2c[nH]cn2)c2cccc3c2OCCCO3)n1 [Compound 352, 4-[(S)-2-(3,4-dihydro-2H-1,5-benzodioxepin-6-yl)-2-(4-imidazolyl)ethyl]-2-methylpyrimidine]	> 500	
Cc1cccc(C(Cc2ccnc(C(C)(C)O)n2)c2c[nH]cn2)c1C (stereo not shown) [Compound 353, 2-{4-[2-(4-imidazolyl)-2-(2,3-xylyl)ethyl]-2-pyrimidinyl}-2 propanol]	< 10	
COc1nccc(CC(c2c[nH]cn2)c2ccccc2C(F)(F)F)n1 (stereo not shown) [Compound 354, 4-{2-(4-imidazolyl)-2-[o-(trifluoromethyl)phenyl]eth-yl}-2-methoxypyrimidine]	> 500	
COCc1nccc(CC(c2c[nH]cn2)c2cccc3c2OCCO3)n1 (stereo not shown) [Compound 356, 4-[2-(2,3-dihydro-1,4-benzodioxin-5-yl)-2-(4-imidazolyl)ethyl]-2-(methoxymethyl)pyrimidine]	10 to 50	
COc1nccc(CC(c2c[nH]cn2)c2cccc3c(C4CC4)noc23)n1 (stereo not shown) [Compound 357, 3-cyclopropyl-7-[1-(4-imidazolyl)-2-(2-methoxy-4-pyrimidinyl)ethyl]-1,2-benzisoxazole]	> 500	
COc1nccc(CC(c2c[nH]cn2)c2ccccc2S(=O)(=O)N2CCCC2)n1 (stereo not shown) [Compound 358, 4-{2-(4-imidazolyl)-2-[o-(1-pyrrolidinylsulfonyl)phenyl]ethyl}-2-methoxypyrimidine]	> 500	
[2H]C([2H])([2H])Oc1c(C)cccc1C(Cc1ccnc(C)n1)c1c[nH]cn1 (stereo not shown) [Compound 359, 4-{2-(4-imidazolyl)-2-[2-(^2H3)methoxy-3-tolyl]ethyl}-2-methylpyrimidine]	10 to 50	
